In patent US20160146819A1, “CLASSIFICATION SYSTEM, METHODS AND KIT FOR CLASSIFYING, PREDICTING AND TREATING BREAST CANCER” (UNIVERSITY OF MIAMI, priority 2013, published 2016):
“Also recorded” adds a separate entry of the source.

System: MDA-MB-453 breast cancer cell line (HR2+/HER2+, ER-negative)
Assay: Cell proliferation assay, MDA-MB-453 cells
Assay type: cell-based, human
Settings: MDA-MB-453 (ER-negative control); ICI 182,780 100 nM alone
Method: All cell lines were cultured according to ATCC's guidelines. BT20, HCC1187, MDAMB468 and SUM159 cells were trypsinized with 0.05% trypsin/EDTA and plated at appropriate densities (BT20: 6,000, HCC1187: 10,000, MDAMB468: 4,000 and SUM159: 1,000 cells/well) in 96 well plates in DMEM+10% FBS. The next day Calcitriol and Taxol were added at concentrations of 25 nM and 1.5 nM respectively (Day0). For ZR75B, 4000 cells/well were plated in 96 well plates in DMEM+10% FBS. […] Calcitriol and 5 nM IC1180,782 were added the next day with fresh medium (Day0). Media was refreshed every two days and cell proliferation assay was performed on day 6 for above cell lines. The T47D cells were trypsinized with phenol red free Triple Express (Invitrogen) and washed once with PBS and 10,000 cells/well were plated in phenol red free DMEM+5% charcoal stripped FBS (CSFBS) in 96 well plates and cultured for 3 days. On the fourth day, 10 nM 17 beta estradiol (E2) was added into all the wells except non-drug treatment group, in addition to 10 nM IC1180,782, 10 nM R1881 and 50 nM Calcitriol in different groups with fresh phenol red free DMEM+5% CSFBS (Day0). […] All the proliferation assays were carried out using cell titer blue reagent (Promega) and fluorescence was measured using Bio-Tek spectrophotometer at 530/25 nm (excitation) and 590/35 nm (emission). […]

`C[C@]12CC[C@@H]3c4ccc(O)cc4C[C@@H](CCCCCCCCC[S+]([O-])CCCC(F)(F)C(F)(F)F)[C@H]3[C@@H]1CC[C@@H]2O` (stereo partly shown) [ICI 182,780] was tested, and the cell proliferation was “no inhibition was observed; also recorded: no inhibition of cell proliferation”.
